Consider 1 compound from US10941126B2, “Bridged bicycloalkyl-substituted aminothiazoles and their methods of use” (Temple University—Of The Commonwealth System of Higher …, priority 2017, dated 2021).

For one experiment, the target named is T1, GSK-3a (Homo sapiens, UniProt P49840).
T1 construct: Nanosyn (contract assay)
Briefly: 250 kinome screening at 1 μM. The class given is biochemical. The procedure:
(§1) HDAC inhibitory activity assays were performed using FLUOR DE LYS® HDAC fluorometric activity assay kit from Enzo following the manufacturer's instructions. GloMax®-Multi Detection System (Promega) was used to read the fluorescence signals. Histone methyltransferase and demethylase enzymatic assays were performed by BPS Bioscience at 10 μM in duplicates. Kinase enzymatic assays were performed by Nanosyn using microfluidic technology. 250 kinome screening was done in duplicates using MC180295 at 1 μM. IC50 curves against 10 CDKs were created for MC180295. The human kinome tree was annotated using the online Kinome Render software (Chartier, M., Chénard, T., Barker, J., and Najmanovich, R. (2013). PeerJ 1, e126). Isotope kinase assay was performed using previously described methods (Garriga, J., Peng, J., Parreño, M., Price, D. H., Henderson, E. E., and Graña, X. (1998). Oncogene 17, 3093-3102) using recombinant active full-length CDK9/CyclinT1 (Millipore, 14-685) and SMARCA4 (Abcam, ab82237) in the presence or absence of CDK9 inhibitors.

Another experiment deals with T2, GSK-3β (Homo sapiens, UniProt P49841).
T2 construct: Nanosyn (contract assay)
T2 sequence (P49841 whole entry): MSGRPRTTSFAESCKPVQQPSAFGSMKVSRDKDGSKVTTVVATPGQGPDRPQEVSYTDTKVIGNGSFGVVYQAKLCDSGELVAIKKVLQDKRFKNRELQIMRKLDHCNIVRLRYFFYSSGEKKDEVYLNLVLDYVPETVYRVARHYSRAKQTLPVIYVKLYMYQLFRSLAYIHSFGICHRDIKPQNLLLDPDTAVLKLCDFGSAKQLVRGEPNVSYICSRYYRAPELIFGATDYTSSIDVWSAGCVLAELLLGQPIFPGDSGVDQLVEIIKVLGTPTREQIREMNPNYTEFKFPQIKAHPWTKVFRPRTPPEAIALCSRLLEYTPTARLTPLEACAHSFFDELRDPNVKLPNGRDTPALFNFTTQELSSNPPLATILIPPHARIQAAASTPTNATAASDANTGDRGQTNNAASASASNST
The experiment is described as follows: 250 kinome screening at 1 μM. The class given is biochemical. As to the method:
as §1

The subject of the next experiment is YB5 cells. Briefly: GFP reactivation in YB5 cells (flow cytometry). Type of experiment: cell-based, human. The text has this: To screen the compounds of the invention for epigenetic anti-cancer activity the YB5 cell-based system, which is derived from the human colon cancer cell line SW48, was used (Si et al., 2010, Cancer Res. 70:6968-6977; Raynal et al., 2012, Cancer Res. 72:1170-1181). YB5 cells contain a single insertion of cytomegalovirus (CMV) promoter driving green fluorescent protein (GFP) gene. GFP expression is silenced in >99.9% of YB5 cells by epigenetic mechanisms. In YB5 cells, the inserted GFP gene behaves similarly to endogenous tumor suppressor genes (TSGs) silenced by epigenetic mechanisms, and it can be reactivated by epigenetic anti-cancer agents such as DNA methylation inhibitors and/or HDAC inhibitors such as depsipeptide (Si et al., 2010, Cancer Res. 70:6968-6977; Raynal et al., 2012, Cancer Research, 72:1170-1181; Wu et al., 2008, Mol. Cell Biol, 28:3219-3235). Thus, reactivation of GFP expression and the resulting fluorescence is a measure of epigenetic anti-cancer activity.
The following procedure may be used to identify compounds of useful in the invention. YB5 cells cultured in L-15 medium supplemented with 10% fetal bovine serum and 1% P/S are treated for 24 hours with varying concentrations (50 nM, 100 nM, 500 nM, 1 μM, 5 μM, 10 μM, 25 μM, and 50 μM) of test compounds. After treatment, cells are trypsinized and re-suspended in cell culture media with propidium iodide (PI) to stain dead cells. Reactivation of GFP is measured using flow cytometry to identify the GFP positive population. The relative activities are expressed as the percent of the response compared to treatment with 20 nM HDACi depsipeptide for 24 hours. YB5 cells are grown in 1% CO2 atmosphere at 37° C.
NDL-3040 compound library consists of 3040 chemically diverse compounds that are semi-natural, derived from natural compounds, or synthetic compounds that are natural-compound-like. The small molecules were arrayed in 96-well plates as 10 mM stocks in 100% DMSO and were purchased from TimTec Inc. An aminothiazole analog library (93 small molecules) was also purchased from the same vendor and was in a 96-well plate format as 10 mM stocks in 100% DMSO. The 3040 compounds were screened at 25 μM for 24 hr. All plates were kept at −80° C. before use. YB5 cells growing in log phase (70-80% confluency) in 96-well plates were used. Each experimental 96-well plate contained 80 different compounds. Compounds were dispensed using an INTEGRA VIAFLO96 96-well pipette. After a 24 hr drug treatment, cells were trypsinized for 10 mins and re-suspended in L-15 medium containing propidium iodide (PI) to stain for dead cells. A total of 10000 cells per well were analyzed using Millipore Guava flow cytometer (EMD, Millipore). GFP positive percentage was calculated by excluding all the PI positive cells. After finishing the screening, the average Z-factor
For drug screening and dose response validations, GFP positive cells were detected by Millipore Guava flow cytometer (EMD, Millipore). Cell cycle analysis was performed using BD FACSCalibur™ by propidium iodide staining four days after drug treatment. Sub-G1 population percentage was also included to measure apoptotic cell proportion. Data were analyzed using FlowJo software version 10.2. For the cell differentiation analysis, cells were washed and stained with propidium iodide (PI), CD11 b (BD Biosciences, #562793) and the isotype control IgG (BD Biosciences, #555748). Flow cytometry analysis was performed on a Millipore Guava flow cytometer (EMD, Millipore). For the ID8 in vivo experiments, ascites was drained from 5-10 mice per group and incubated in ACK buffer (Thermo Fisher) to lyse red blood cells for 10 minutes, then washed. Ascites from each mouse was individually lysed and prepared for flow cytometry. Mononuclear cells collected were cultured for 4 hours in RPMI with 5% Fetal Bovine Serum and in the presence of Cell Stimulation Cocktail (plus protein transport inhibitors; eBioscience). […]
Background: Flow cytometry measures light scatter and fluorescence of single cells or particles in a stream.

For another experiment, the target named is T3, CDK9 (Homo sapiens, UniProt P50750).
T3 construct: Nanosyn (contract assay)
T3 sequence (P50750 whole entry): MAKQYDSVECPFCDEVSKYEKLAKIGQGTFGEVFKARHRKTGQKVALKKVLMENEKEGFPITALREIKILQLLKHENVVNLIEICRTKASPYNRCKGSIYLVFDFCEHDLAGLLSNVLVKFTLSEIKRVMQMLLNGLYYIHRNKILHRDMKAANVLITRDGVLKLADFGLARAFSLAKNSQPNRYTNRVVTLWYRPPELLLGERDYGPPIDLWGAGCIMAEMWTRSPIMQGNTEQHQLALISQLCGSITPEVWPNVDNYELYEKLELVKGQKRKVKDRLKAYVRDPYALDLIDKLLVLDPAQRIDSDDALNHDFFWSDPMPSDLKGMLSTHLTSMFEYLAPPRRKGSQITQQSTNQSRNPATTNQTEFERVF
T3 sequence (O60563 whole entry partner): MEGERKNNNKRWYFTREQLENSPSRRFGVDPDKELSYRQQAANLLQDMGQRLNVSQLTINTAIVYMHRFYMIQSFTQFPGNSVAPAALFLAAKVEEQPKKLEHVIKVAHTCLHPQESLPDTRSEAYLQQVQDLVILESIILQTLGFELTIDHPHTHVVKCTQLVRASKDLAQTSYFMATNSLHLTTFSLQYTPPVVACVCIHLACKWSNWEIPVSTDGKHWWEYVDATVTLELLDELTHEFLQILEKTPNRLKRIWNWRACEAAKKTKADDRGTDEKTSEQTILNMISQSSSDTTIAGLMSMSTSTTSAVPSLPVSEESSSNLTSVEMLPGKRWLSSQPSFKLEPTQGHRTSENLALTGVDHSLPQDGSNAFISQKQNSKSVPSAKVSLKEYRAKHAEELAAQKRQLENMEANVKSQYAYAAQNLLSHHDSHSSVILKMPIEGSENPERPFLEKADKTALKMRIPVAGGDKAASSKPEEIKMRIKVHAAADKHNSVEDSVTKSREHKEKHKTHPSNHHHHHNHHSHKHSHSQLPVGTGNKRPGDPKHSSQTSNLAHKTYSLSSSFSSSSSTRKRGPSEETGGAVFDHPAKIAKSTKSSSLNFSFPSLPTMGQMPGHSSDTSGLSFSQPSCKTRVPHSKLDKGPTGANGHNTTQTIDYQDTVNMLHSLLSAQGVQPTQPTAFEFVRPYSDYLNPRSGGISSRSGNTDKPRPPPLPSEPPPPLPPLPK
The experiment is described as follows: Kinase enzymatic assay (Nanosyn, microfluidic), IC50 curves against CDKs. Type of experiment: biochemical. As to the method: as §1

T1 sequence (P49840 whole entry): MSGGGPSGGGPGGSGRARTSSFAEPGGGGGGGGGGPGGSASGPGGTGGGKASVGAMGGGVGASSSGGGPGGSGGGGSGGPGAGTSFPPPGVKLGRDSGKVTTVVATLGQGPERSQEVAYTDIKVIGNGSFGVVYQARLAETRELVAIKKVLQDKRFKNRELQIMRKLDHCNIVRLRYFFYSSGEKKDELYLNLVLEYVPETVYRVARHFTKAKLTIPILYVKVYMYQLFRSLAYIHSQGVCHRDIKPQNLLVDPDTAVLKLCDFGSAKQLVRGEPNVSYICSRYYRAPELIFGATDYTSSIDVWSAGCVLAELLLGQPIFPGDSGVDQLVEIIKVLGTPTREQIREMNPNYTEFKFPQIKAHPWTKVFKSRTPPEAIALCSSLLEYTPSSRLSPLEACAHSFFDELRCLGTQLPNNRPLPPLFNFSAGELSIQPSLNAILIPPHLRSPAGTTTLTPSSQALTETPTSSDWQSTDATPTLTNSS

For `Nc1nc(N[C@H]2CC3CCC2C3)sc1C(=O)c1ccccc1[N+](=O)[O-]` (some centres unmarked) [MC180295], the inhibition entry at GSK-3a and against GSK-3β was “inhibited” in each case. Moreover, the “relative activity to Depsipeptide @ 500 nM %” value in the experiment on YB5 cells (500 nM) was 14.10%. The “relative activity to Depsipeptide @ 50 μM %” value in the experiment with YB5 cells (50 μM) amounted to 23.32%. In the experiment on YB5 cells (Homo sapiens, 24 h, read-out: relative activity to Depsipeptide @ 1 μM %), the Emax at 1 µM turned out to be 28.8%. In addition, the Emax at 5 µM with YB5 cells (Homo sapiens, 24 h, read-out: relative activity to Depsipeptide @ 5 μM %) was 65.4%. Also, the Emax at 10 µM in the experiment on YB5 cells (Homo sapiens, 24 h, read-out: relative activity to Depsipeptide @ 10 μM %) is 72.8%. Also, the Emax at 25 µM in the experiment with YB5 cells (Homo sapiens, 24 h, read-out: relative activity to Depsipeptide @ 25 μM %) came out at 73.3%. In the experiment on YB5 cells (at 500 nM), the “GFP+ cells” value is on record as around 60%. Moreover, on CDK9, the midpoint of inhibition, the IC50, lay at 5 nM. For the same compound, the “selectivity for CDK9 over other CDKs” value at CDK9 (10 different CDKs) is on record as “at least 22 fold”.

As usually defined, the IC50 is the concentration that inhibits the measured activity by half. Low readings indicate greater potency in that assay, high ones weaker potency in that assay.
